According to US6962909B2, “Treatment of neovascularization disorders with squalimine” (Genaera Corporation, priority 1995, dated 2005):
Marks after values point to notes of the source that are not given here.

Experiments:
[1] = Fasting blood glucose in mice; format: in vivo; details: for Fasting Blood Glucose Mean + SEM: male CD-1 mice, 2 × 10 mg/kg i.v. (total 20 mg/kg), overnight fast, blood 30 min. after 2d dose, 1437 and 1256 in H2O, 1436 in D5W
Description: To study the effect of steroid administrator or the NHE responsible for secretion of insulin, several of the aminosterols from shark liver were administered to fasting mice. Male CD-1 mice were assigned to one of four treatment groups. Whole blood glucose was tested using glucometer (Lifescan Glucometer II and One Touch test strips). Statistical analysis was via one-way analysis of variance (ANOVA) followed by subsequent Bonferonni's t-test.

[2] = system: PHA-stimulated human lymphocytes; test: Inhibition of mitogen-stimulated growth of human T-cells; format: cell-based; details: Lymphocyte, 10 μg/ml, read-out: Inhibition of blast transformation
B16 melanoma = test: Growth of B16 melanoma in C57B mice; format: in vivo
Description: The growth of B16 melanoma in C57B mice is dependent upon neovascularization.
Using the growth of B16 melanoma cells in C57B mice, a recognized model for the evaluation of inhibitors of angiogenesis on the growth of cancers, the effects of subcutaneous, intraperitoneal and oral administration of squalamine were evaluated.
Animals were implanted with B16 melanoma followed by treatment with compound 1436 or 1256 administered in a combined schedule or separately. […] Thus, a combination of these two compounds achieves a therapeutic benefit in tumors dependent on neovascularization that may prevent metastatic spread.

[3] = system: vitelline capillaries of 3- to 5-day chick embryo; test: Chick embryo vitelline capillary regression assay; format: in vivo; parameters: key to Vascular reactivity (capillary regression): + = Vascular reactivity; 0 = No vascular reactivity; +/− = Equivocal reactivity; details: for Vascular reactivity (capillary regression): 60 minutes
Outline: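 Compounds were applied onto the 3- to 5-day embryo in 0.1 ml 15% Ficol 400 in PBS. Vascular regression was assessed visually after 60 min, scoring capillary constriction and pinching-off into enclosed blood-island-like sacs.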

[4] = system: Stage 59-60 Xenopus tadpoles; test: Xenopus tadpole assay; format: in vivo, Xenopus laevis; details: 10 μg/ml in water; for Pharmacological response observed in tadpole: about 1 hour
Outline: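 Stage 59-60 Xenopus laevis tadpoles placed in compound dissolved in distilled water at 10 μg/ml, allowing oral uptake and systemic exposure. After 1 hour, capillary blood-flow occlusion in the tail was scored by inverted microscopy (~100×) plus gross observation.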

[5] = system: PHA-stimulated human lymphocytes; test: Inhibition of mitogen-stimulated growth of human T-cells; format: cell-based; details: 72 hours
Description: Human heparinized blood, freshly collected, was introduced into tissue culture flasks containing 10 μg/ml phytohaemagglutinin (PHA) in RPMI medium with 10% FCS. Various purified steroids were introduced subsequently at concentrations of 1, 5, and 10 μg/ml. Cultures were incubated for 72 hours, after which time colcemid was added to 1 μg/ml. Cultures were maintained for an additional 2 hours, and cells collected. Mitotic figures were estimated using standard cytochemical techniques, following Giemsa staining.

[6] = system: chorioallantoic membrane capillaries; test: Chorioallantoic membrane (CAM) model of capillary growth; format: in vivo, chick; details: for Percentage positive, Assay 1 / Percentage positive, Assay 2 / Percentage positive, Mean: 3-day embryo
From the text: The growing capillaries within the chorioallantoic membrane model (CAM model) have been used as a system in which to evaluate the effect of agents on their potential to inhibit new vessel growth. Neovascularization occurs most aggressively over the first week of embryonic development. Thereafter capillary growth is characterized by principally “elongation” rather than “de novo” formation. In the standard assay, agents are applied locally to a region of the embryo over which neovascularization will occur. Agents are assessed by their ability to inhibit this process, as evaluated by visual examination about 7 days after application. […] The assay utilized is described in detail in Auerbach et al., Pharm. Ther. 51, 1991, 1-11.

[7] = 20 μg applied, some vascular irritation noted
[8] = 40 μg applied, some vascular irritation noted

SMILES: CC(CC[C@@H](OS(=O)(=O)O)C(C)C)[C@H]1CCC2C3C(CC[C@@]21C)[C@@]1(C)CC[C@H](NCCCNCCCCNCCCN)C[C@@H]1C[C@H]3O (stereo partly shown) [Compound 1436]
- Effect on blood glucose ([1]; intravenous, 1436 in D5W (5% glucose), 1437 in water): caused hyperglycemia in mice
- Fasting Blood Glucose Mean + SEM [1]: 105 ± 8.0 mg/dL
- inhibition at 10 µg/mL [2]: > 75%
- Impact on tumor volume (B16 melanoma; compound 1436 10 mg/kg/every 3 days alone): no significant impact on tumor volume
- Vascular reactivity (capillary regression) ([3]; 0.001 μg applied): +/−
- Vascular reactivity (capillary regression) ([3]; 0.01 μg applied): +
- Vascular reactivity (capillary regression) ([3]; 0.1 μg applied): +
- Vascular reactivity (capillary regression) ([3]; 1 μg applied): +
- Vascular reactivity (capillary regression) ([3]; 10 μg applied): +
- Effect on chick embryo capillary bed ([3]; in vivo): causes vitelline capillary regression with about the same potency as squalamine
- Pharmacological category in tadpole assay (similarity to a reference steroid) [4]: common vascular occlusive effect
- Time to death of tadpole [4]: about 2 hours
- Pharmacological response observed in tadpole [4]: Gradual reduction in overall activity. Heart beat remained strong, suggesting nervous system depression. Melanocytes over head and tail began to swell, first exhibiting visibly distinct nuclei, followed by rupture into fragments
- Pharmacological response observed in tadpole ([4]; listed as compound 1436): dramatic disruption of melanocytes over its head, trunk, and tail, along with depression of its nervous system
- Inhibition of PHA-stimulated human lymphocytes ([5]; 1 μg/ml): 20 % control
- Inhibition of PHA-stimulated human lymphocytes ([5]; 5 μg/ml): 50 % control
- Inhibition of PHA-stimulated human lymphocytes ([5]; 10 μg/ml): 80 % control

SMILES: CC(CC[C@@H](OS(=O)(=O)O)C(C)C)[C@H]1CCC2C3C(CC[C@@]21C)[C@@]1(C)CC[C@H](NCCCNCCCCN)C[C@@H]1C[C@H]3O (stereo partly shown) [squalamine]
- Fasting Blood Glucose Mean + SEM [1]: 65 ± 7.3 mg/dL
- Percentage positive, Assay 1 ([6]; 0.65 μg applied): 28%
- Percentage positive, Assay 1 ([6]; 1.25 μg applied): 18%
- Percentage positive, Assay 2 ([6]; 1.25 μg applied): 18%
- Percentage positive, Mean ([6]; 1.25 μg applied): 18%
- Percentage positive, Assay 1 ([6]; 2.5 μg applied): 35%
- Percentage positive, Assay 2 ([6]; 2.5 μg applied): 18%
- Percentage positive, Mean ([6]; 2.5 μg applied): 27%
- Percentage positive, Assay 1 ([6]; 5.0 μg applied): 91%
- Percentage positive, Assay 2 ([6]; 5.0 μg applied): 57%
- Percentage positive, Mean ([6]; 5.0 μg applied): 74%
- Percentage positive, Mean ([6]; 20 μg applied): 55%
- Percentage positive, Assay 1 [6, 7]: 52* %
- Percentage positive, Assay 2 [6, 7]: 58* %
- Percentage positive, Mean ([6]; 40 μg applied): 32%
- Percentage positive, Assay 1 [6, 8]: 50* %
- Percentage positive, Assay 2 [6, 8]: 13* %
- Percentage positive ([6]; 13-day embryo, 5.0 μg applied): 0/26
- Body weight and hematologic parameters (B16 melanoma; during squalamine treatment): no significant depression
- Impact on tumor volume (B16 melanoma; squalamine 5 mg/kg/day alone): no significant impact on tumor volume
- Suppression of tumor volume (B16 melanoma; squalamine intraperitoneally): dose-dependent suppression of tumor volume
- Suppression of tumor volume (B16 melanoma; squalamine orally): dose-dependent suppression of tumor volume
- Suppression of tumor volume (B16 melanoma; squalamine subcutaneously): dose-dependent suppression of tumor volume
- Vascular reactivity (capillary regression) ([3]; 0.001 μg applied): 0
- Vascular reactivity (capillary regression) ([3]; 0.01 μg applied): +
- Vascular reactivity (capillary regression) ([3]; 0.1 μg applied): +
- Vascular reactivity (capillary regression) ([3]; 1 μg applied): +
- Vascular reactivity (capillary regression) ([3]; 10 μg applied): +
- Pharmacological category in tadpole assay (similarity to a reference steroid) [4]: common vascular occlusive effect
- Time to death of tadpole [4]: ≤ 2 h
- Pharmacological response observed in tadpole [4]: blood flow through the capillaries of the tail shut down
- Pharmacological response observed in tadpole ([4]; listed as Compound 1256): Vascular occlusion in fine capillaries of tail
- Inhibition of PHA-stimulated human lymphocytes ([5]; 1 μg/ml): 3 % control
- Inhibition of PHA-stimulated human lymphocytes ([5]; 5 μg/ml): 8 % control
- Inhibition of PHA-stimulated human lymphocytes ([5]; 10 μg/ml): 10 % control
